In patent publication US20080039434A1, “Treatment of Interstitial Cystitis with Vitamin D Compounds” (BioXell S. p.A., priority 2004, published 2008):
Values joined by “and” are separate entries in the source; they are usually repeats but may differ in a detail not shown here. Equal values may be shown once.

Tests used:
[1] = system: rat bladders (CYP-induced cystitis); assay: Histological analysis of rat bladders from the CYP cystitis experiment; type: in vivo
Experimental: Rat bladders from the experiments of Example 1 were fixed in formalin, embedded in paraffin and stained with hematoxylin and eosin by methods known in the art.
Histopathological examination was performed on at least 10 sections per bladder. Different inflammatory parameters were considered:
infiltration of inflammatory cells (mostly lymphocytes and monocytes)
and were scored as follows: 0=normal without any sign of inflammation, 1=mild, 2=moderate, 3=severe, 4=severe signs diffused across all of the section.
Table 3 refers to vehicle treated animals and Table 4 to “Compound A” treated animals. Each inflammatory parameter was scored from 0 to 4, where 0 is normal and 4 the most severe symptom.

IL-13 = assay: Taq-Man analysis of bladder mRNA, allergic IC in mice: IL-13; type: in vivo, mouse; conditions: ovalbumin challenged
Experimental: Mice (BALB/c, females 8 weeks old, weight 18-20 g, Charles River, Calco ITA) were sensitized by injecting 10 ug/mouse of chicken ovalbumin from Sigma (OVA, grade V) in the presence of 4 mg of alum (SERVA, Germany) by intraperitoneal injection, once a week for 4 weeks. This induces a sustained level of IgE detectable in serum.
One or two weeks after the last immunization boost, sensitized mice were anesthetized (1.5% Isoflurane) and then trans-urethrally catheterized (24 gauge, ¾ in.; Angiocath, Becton-Dickson). Slight digital pressure was applied the lower abdomen to drain the urine.
The urinary bladders were instilled with either 150 ul of either saline or OVA alone, (1 mg/150 ul) infused at a slow rate to avoid trauma and vesico-ureteral reflux and repeated twice within a 30-min interval with the syringe kept in place on the catheter for at least 30 min. Intravesical challenge was repeated 7-10 days after the first one with the same procedure.
An ethanol stock solution of Compound B (1 mg/ml) was dissolved in Miglyol vehicle at the appropriate concentration. Control animals received the vehicle containing the same amount of ethanol. Drug (or vehicle) treatment was carried out by daily gavage after weighing the animal. Drug solution was prepared calculating a final volume of 100 ul/10 grams body weight, and treatment was started on the day of the first intravesical ovalbumin challenge, maintained daily, but discontinued over the weekends, for 12 days total treatment. FIG. 7 illustrates the timeline of the experiment.
Total RNA was extracted from one half of bladder by using RNeasy Mini kit (Qiagen), treated with DNase 1 (Qiagen) and reverse transcription performed with Reverse Transcription Reagent (Applied Biosystems) with Random Hexamers (according to the manufacturer's instructions). cDNA was synthesized from 1 ug of RNA. Real-Time PCR was performed in 96-well optical reaction plates (Applied Biosystems). For each sample we amplified both the target gene and the housekeeping gene (HPRT) in different wells (singleplex) and in duplicate. The amplification Master Mix was prepared according to the following protocol (volumes refer to a single well with a final volume of 40 ul/well)): 2× TaqMan® R Universal PCR Master Mix (Applied Biosystems, 4304437): 20 ul; 20× Assay target gene: 2 ul; H2O: 8 ul; cDNA: 10 ul. Reaction was run on an SDS 7000 (Applied Biosystems) instruments, with the following amplification program: 2′ at 50° C.; 10′ at 95° C.; 15″ at 95° C. and 1′ at 60° C. for 40 cycles; Cycle threshold (Ct) values were exported into Excel Worksheets for analysis and relative quantitations were performed using the ΔCt method. All primers used carried the FAM reporter.
Experiments in Example 7 were performed according to the general procedures described previously in Example 6. Mice were challenged with saline (untreated) or ovalbumin (treatment with vehicle or one of Compounds C-I at a dosage indicated in Table 6 in ug/kg).

[2] = individual rats, score 0 (normal) to 4 (most severe), Compound A 0.1 μg/kg oral 14 days
[3] = mean of 4 Compound A treated rats, score 0-4

`CC(=O)OC1C/C(=C/C=C2\CCC[C@]3(C)C(C(C)C/C=C\C(O)(C(F)(F)F)C(F)(F)F)=CCC23)C[C@@H](OC(C)=O)C1` (stereo partly drawn) [Compound A, 1,3-Di-O-acetyl-1,25-dihydroxy-16,23Z-diene-26,27-hexafluoro-19-nor-cholecalciferol] was tested, and the “EPITHELIAL EROSION histological score” value [1, 2] was 0, the FIBROSIS histological score [1, 2] was 0 and the HEMOSTASIS histological score [1, 2] was 0 and 1 and 0.5 (2×). The INFILTRATION histological score [1, 2] was 0.5 (2×) and 1 and 2, the EDEMA histological score ([1]; individual rats, score 0 normal, 1 mild, 2 moderate, 3 severe, 4 severe diffused, Compound A 0.1 μg/kg oral 14 days) was 0.5 and 0 (2×) and 2 and the “EDEMA histological score, MEAN” value [1, 3] was 0.63. For the same compound, the “EPITHELIAL EROSION histological score, MEAN” value [1, 3] was 0, the “FIBROSIS histological score, MEAN” value [1, 3] was 0 and the “HEMOSTASIS histological score, MEAN” value [1, 3] was 0.5. For the same compound, the “INFILTRATION histological score, MEAN” value [1, 3] was 1.

In the case of `C=C1/C(=C\C=C2/CCC[C@]3(C)C([C@@H](C)C/C=C/C(O)(CC)CC)=CC[C@@H]23)C[C@@H](O)C[C@@H]1F` [Compound B, 1-alpha-fluoro-25-hydroxy-16,23E-diene-26,27-bishomo-20-epi-cholecalciferol], the “expression of inflammatory marker IL-13” value (IL-13; 75 ug/kg oral, individual animals) is reported as “down-modulates” and the “expression of inflammatory marker IL-13” value (IL-13; 30 and 75 ug/kg oral, dose dependent, pooled samples) is reported as “significantly reduces”.
